# Columns and labels:
# [1] = system: seven RB-positive patient derived WD/DDLS cell lines; test: cell cycle distribution, propidium iodine and flow cytometry; assay type: cell-based, human; settings: two days of treatment
# Method: Percentages annotated on graphs represent the mean of three or more independent experiments. Cells were stained with BrdU (20 μM for two hours) or annexin V as previously described (22, 48). […] was determined by staining with propidium iodine and FACS analyses (49).
# [2] = system: WD/DDLS cell lines; test: annexin V staining (apoptosis); assay type: cell-based, human; settings: PD0332991, 48 hours, any of the seven cell lines
# Method: FIG. 1A-C. […] Mean percentage of BrdU incorporation or annexin V+/7-AAD− cells was calculated from three or more independent experiments. Error bars represent standard deviation (*p<0.05).
# FIG. 13A-B. Nutlin-3a induces apoptosis in all the liposarcoma cell lines. The indicated cell lines were treated with nutlin-3a or vehicle control and extracts were prepared for immunoblotting (A) or annexin V staining (B) forty-eight hours after treatment. Mean percentage of annexin V+/7-AAD− cells was calculated from three or more independent experiments. Error bars represent standard deviation (*p<0.05).
# Cells were stained with BrdU (20 μM for two hours) or annexin V as previously described (22, 48). […] was determined by staining with propidium iodine and FACS analyses (49).
# [3] = system: LS8107 and LS7785-1 cells; test: BrdU incorporation after release into drug-free medium; assay type: cell-based, human; settings: after seven days of drug treatment
# Source text: (§1) Mean percentage standard deviation). (*p<0.05). (A) Senescence-associated β-galactosidase and (B) HP1γ staining for senescence associated heterochromatic foci (SAHF) formation was quantitated for three or more independent experiments for each cell line. (*p<0.05). Representative phase contrast micrographs of cells stained for SA-β-gal or immunofluorescence staining for HP1γ in two of the cell lines before (ctrl) and after (PD) drug treatment are shown in the insets of FIGS. 2A and 2B, respectively. (C) BrdU incorporation. Cell lines were treated with PD0332991 for seven days, and released into drug-free medium containing BrdU for the number of days indicated. Error bars represent the standard deviation of the mean calculated from three independent trials.
# [4] = system: LS8817 and LS0082 cells; test: as above; assay type: cell-based, human; settings: after seven days of drug treatment
# Source text: as §1
# [5] = system: cytokine secretion of LS8313 cells; test: human cytokine array (SASP); assay type: cell-based; settings: 1 μM, seven days
# Method: (§2) FIG. 16. […] Human cytokine arrays were purchased from R&D Technologies (ARY006). […] The media was changed 24 hours prior to harvest. On the day of harvest, the media was collected, spun for 5 minutes at 1200 rpm and filtered through a […] syringe to remove debris. Cells were trypsinized and counted and media volume was adjusted so that an equal number of cells were represented from each sample. Cytokine arrays were performed according to manufacturer's protocol. Signal intensity was measured using ImageJ and a log2 value of the PD/CTRL ratio was calculated.
# [6] = system: cytokine secretion of LS8817 cells; test: human cytokine array (SASP); assay type: cell-based; settings: 1 μM, seven days
# Method: as §2
# [7] = system: MDM2 in LS8817 and LS0082 cells; test: MDM2 levels by immunoblot, responder cells; assay type: cell-based, human; settings: two days
# Method: (A) Immunoblot. […] Tubulin was a loading control. (B) Immunoblot.
# Antibodies against CDK4 (3F121), MDM2 (N-20 and SMP14), total RB (IF8), Cyclin A (H432), p16 (C20), p53 (DO-1 and Bp53-12), tubulin (C20) and FLAG (M2) were obtained from Santa Cruz Biotechnology, phospho-Rb 780 (#9307) from Cell Signalling, and ARF (3642) from Abeam, HAUSP (A300-033A) from Bethyl Laboratories. Treated cells were lysed with buffer composed of 50 mM Tris-HCl, pH7.4, 250 mM NaCl, 5 mM EDTA, 0.5% NP40, 2 mM PMSF, and supplemented with protease inhibitors. Eighty micrograms of protein were resolved by SDS-PAGE and transferred to PVDF membranes. Membranes were incubated overnight with antibodies (1:1000). […] Pre-treatment biopsies were collected within two weeks of the first dose and post-treatment biopsies collected after at last three weeks of treatment. Extracts were prepared in 50 mM Tris-HCl, pH7.4, 150 mM NaCl, 1 mM EDTA, 1% NP40, 0.25% sodium deoxycholate and supplemented with mini-protease inhibitor cocktail (Roche). Tumor response was assessed by reference radiologist by CT scan every six weeks for 36 weeks, and every 12 weeks thereafter.
# [8] = system: LS8817 cells with enforced MDM2 expression; test: PD0332991 response with enforced MDM2 expression; assay type: cell-based, human
# Method: (A) Immunoblot. […] Tubulin was a loading control. (B) Immunoblot. […] This experiment was carried out with three different pools of transductants multiple times (*p<0.05, **p<0.01). r^2 is calculated as the best-fit correlation.
# FIG. 17. […] Cells transduced with an RFP expressing virus were used as a control.
# For MDM2 and Rb expression, cells were infected with a lentivirus (pLOC, Open Biosystems) encoding either MDM2, MDM2 V75A, MDM2 I440A, MDM2 C464A, MDM2 Δ254-264, MDM2 L468A, MDM2 Δ464-471, MDM2 P476A, RB, LP-RB, PSM-RB or RFP. Transduced cells were selected for in media containing 3 μg/ml blasticidin and selection was maintained throughout the experiment.
# [9] = system: MDM2 in glioma (U87MG, U251, SNB19, DBTRG-05MG) and breast cancer (MDA453, T47D, ZR-75-1, and MCF7) cells; test: MDM2 levels in glioma and breast cancer cell lines; assay type: cell-based; settings: eight glioma and breast cancer cell lines
# Source text: FIG. 19A-C. Senescence associated with the downregulation of MDM2 is p53 and INK4 independent. […] This experiment was repeated three times with similar results in both LS8817 and LS141. […] The p53 mutational status of these cell lines (WT, wild type; R273H and L194F, missense mutations; if-DEL, in-frame deletion of 30 nucleotides at amino acid 368) were obtained from the p53 mutation database and the RIKEN bioresource databank and is consistent with the detection of p21 by immunoblot. (C) SNB19 cells, a p53 mutant and INK4A deficient cell, was transduced with the mutants described in panel A and their effect on senescence determined.
# Antibodies against CDK4 (3F121), MDM2 (SMP-14), total RB (IFS), Cyclin A (H432), p16 (C20), and p53 (Bp53-12), were obtained from Santa Cruz Biotechnology, phospho-Rb 780 (#9307) from Cell Signalling, and ARF (3642) from Abeam. Treated cells were lysed with buffer composed of 50 mM Tris-HCl, pH7.4, 250 mM NaCl, 5 mM EDTA, 0.5% NP40, 2 mM PMSF, and supplemented with protease inhibitors. Eighty micrograms of protein were resolved by SDS-PAGE and transferred to PVDF membranes. Membranes were incubated overnight with antibodies (1:1000).
# [10] = system: RB-negative cells; settings: cited from earlier work
compound,measurement,setting,value
CC(=O)c1c(C)c2cnc(Nc3ccc(N4CCNCC4)cn3)nc2n(C2CCCC2)c1=O [PD0332991],cell cycle distribution,[1],accumulating in G0/G1
same,"annexin V staining, a marker of apoptosis",[2],did not induce a significant change
same,time to return to the cell cycle after the drug was removed,[3],≤ 48 h
same,return to the cell cycle after the drug was removed,[4],did not
same,SASP cytokine secretion,[5],only IL-6 secretion increased
same,MIF-1 and PAI-1 secretion,[6],essentially unchanged
same,"secretion of GM-CSF, GROα/CXCL1, IL-6, IL-8 and MCP-1",[6],upregulated
same,MDM2 reduction,[7],approximately three-fold
same,"cell cycle exit (phosphorylated Rb, cyclin A, BrdU incorporation)",[8],not affected
same,p53 levels,[8],still reduced
same,SA-β-gal accumulation,[8]; seven days,failed to accumulate
same,MDM2 levels,[9],decreased
same,proliferation of RB-negative cells,[10],no effect

# Source: patent US9889135B2, “Companion diagnostic for CDK4 inhibitors” (Memorial Sloan-Kettering Cancer Center, priority 2013, dated 2018)
